# Assays:
# [1] = Drug metabolism in human liver microsomes assessed as metabolite M+16 (III) formation at 5 uM after 60 mins by UPLC-MS analysis; type: ADME, microsome; details: 1 h
# [2] = Drug metabolism in human liver microsomes assessed as mono-oxygenation and dehydrogenation metabolite formation at 5 uM after 60 mins by UPLC-MS analysis; type: ADME, microsome; details: 1 h
# [3] = Oral bioavailability in Sprague-Dawley rat at 100 mg/kg administered via gavage by LC/MS analysis; type: ADME, organism-based; details: in vivo
# Mus musculus [4] = assay: Dose normalized AUC (0 to t) in humanized NOD.Cg-Prkdcscid Il2rgtm1Wjl/SzJ mouse infected with Plasmodium falciparum Pf3D70087/N9 at 100 mg/kg, po administered as single dose by LC-MS/MS analysis; type: ADME, organism-based; details: in vivo
# [5] = Drug metabolism in mouse liver microsomes assessed as metabolite M+32 (V) formation at 5 uM after 60 mins by UPLC-MS analysis; type: ADME, microsome; details: 1 h
# [6] = Drug metabolism in rat liver microsomes assessed as metabolite 4-(4-(morpholinomethyl)phenyl)cyclohexanol formation at 5 uM after 60 mins by UPLC-MS analysis; type: ADME, microsome; details: 1 h
# [7] = Drug metabolism in human liver microsomes assessed as bis-oxygenation and dehydrogenation metabolite formation at 5 uM after 60 mins by UPLC-MS analysis; type: ADME, microsome; details: 1 h
# [8] = Metabolic stability in rat blood after 2 to 4 hrs by LC-MS method; type: ADME, tissue-based
# [9] = Drug metabolism in human liver microsomes assessed as ring dehydrogenated metabolite formation at 5 uM after 60 mins by UPLC-MS analysis; type: ADME, microsome; details: 1 h
# Mus musculus [10] = assay: Dose normalized AUC (0 to t) in humanized NOD.Cg-Prkdcscid Il2rgtm1Wjl/SzJ mouse infected with Plasmodium falciparum Pf3D70087/N9 at 30 mg/kg, po administered as single dose by LC-MS/MS analysis; type: ADME, organism-based; details: in vivo
# [11] = Intrinsic clearance in mouse liver microsomes assessed per mg protein at 5 uM by UPLC-MS analysis; type: ADME, microsome; details: read-out: CLH
# [12] = Drug metabolism in rat liver microsomes assessed as metabolite M+32 (II) formation at 5 uM after 60 mins by UPLC-MS analysis; type: ADME, microsome; details: 1 h
# [13] = Drug metabolism in mouse liver microsomes assessed as metabolite M+32 (IV) formation at 5 uM after 60 mins by UPLC-MS analysis; type: ADME, microsome; details: 1 h
# Mus musculus [14] = assay: Dose normalized AUC (0 to t) in humanized NOD.Cg-Prkdcscid Il2rgtm1Wjl/SzJ mouse infected with Plasmodium falciparum Pf3D70087/N9 at 50 mg/kg, po administered as single dose by LC-MS/MS analysis; type: ADME, organism-based; details: in vivo
# Mus musculus [15] = assay: Dose normalized Cmax in humanized NOD.Cg-Prkdcscid Il2rgtm1Wjl/SzJ mouse infected with Plasmodium falciparum Pf3D70087/N9 at 100 mg/kg, po administered as single dose after 0.25 to 23 hrs by LC-MS/MS analysis; type: ADME, organism-based; details: in vivo
# [16] = Drug metabolism in human liver microsomes assessed as deaminated morpholine acid metabolite formation at 5 uM after 60 mins by UPLC-MS analysis; type: ADME, microsome; details: 1 h
# Cytochrome P450 3A4 = Cytochrome P450 3A4 (Homo sapiens, UniProt P08684); assay: Inhibition of CYP3A4 in human liver microsomes assessed as midazolam 1'-hydroxylation after 4 to 40 mins in presence of NADPH by LCMS analysis; type: ADME
# Sequence of Cytochrome P450 3A4 (P08684 whole entry): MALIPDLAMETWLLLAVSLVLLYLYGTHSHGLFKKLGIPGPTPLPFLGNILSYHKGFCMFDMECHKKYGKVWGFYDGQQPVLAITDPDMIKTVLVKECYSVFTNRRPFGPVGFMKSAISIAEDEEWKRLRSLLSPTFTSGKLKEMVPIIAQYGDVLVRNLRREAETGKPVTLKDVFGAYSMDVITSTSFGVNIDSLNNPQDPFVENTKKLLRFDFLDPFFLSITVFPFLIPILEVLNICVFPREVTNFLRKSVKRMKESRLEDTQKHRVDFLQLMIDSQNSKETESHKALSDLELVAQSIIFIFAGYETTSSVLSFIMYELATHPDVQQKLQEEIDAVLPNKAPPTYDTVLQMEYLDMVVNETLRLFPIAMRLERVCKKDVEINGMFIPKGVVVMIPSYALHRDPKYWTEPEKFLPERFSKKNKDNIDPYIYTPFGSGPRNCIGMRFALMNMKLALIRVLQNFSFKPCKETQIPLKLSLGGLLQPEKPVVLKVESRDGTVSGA
# [17] = Drug metabolism in human liver microsomes assessed as open morpholine ring metabolite formation at 5 uM after 60 mins by UPLC-MS analysis; type: ADME, microsome; details: 1 h
# [18] = Cmax in humanized NOD.Cg-Prkdcscid Il2rgtm1Wjl/SzJ mouse infected with Plasmodium falciparum Pf3D70087/N9 at 15 mg/kg, po administered as single dose after 0.25 to 23 hrs by LC-MS/MS analysis; type: ADME, organism-based; set-up: dose 15 mg/kg, route oral; details: in vivo
# Cytochrome P450 2C9 = Cytochrome P450 2C9 (Homo sapiens, UniProt P11712); assay: Inhibition of CYP2C9 in human liver microsomes assessed as tolbutamide methylhydroxylation after 4 to 40 mins in presence of NADPH by LCMS analysis; type: ADME
# Sequence of Cytochrome P450 2C9 (P11712 whole entry): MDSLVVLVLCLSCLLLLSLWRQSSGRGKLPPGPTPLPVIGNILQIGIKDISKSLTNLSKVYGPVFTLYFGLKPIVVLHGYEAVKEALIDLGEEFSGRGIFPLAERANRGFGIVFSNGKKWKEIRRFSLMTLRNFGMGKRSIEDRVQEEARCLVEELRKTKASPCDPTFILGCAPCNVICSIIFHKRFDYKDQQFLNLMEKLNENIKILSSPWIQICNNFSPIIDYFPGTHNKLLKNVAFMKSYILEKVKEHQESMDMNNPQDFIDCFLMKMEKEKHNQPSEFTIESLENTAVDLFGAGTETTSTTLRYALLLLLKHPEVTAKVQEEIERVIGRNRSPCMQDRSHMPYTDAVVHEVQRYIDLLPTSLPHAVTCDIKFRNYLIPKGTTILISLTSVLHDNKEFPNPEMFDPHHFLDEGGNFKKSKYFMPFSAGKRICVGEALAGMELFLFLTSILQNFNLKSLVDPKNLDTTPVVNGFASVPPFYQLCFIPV
# [19] = Drug metabolism in mouse liver microsomes assessed as metabolite M+32 (III) formation at 5 uM after 60 mins by UPLC-MS analysis; type: ADME, microsome; details: 1 h
# [20] = Intrinsic clearance in mouse liver microsomes assessed per mg protein at 1 uM by UPLC-MS analysis; type: ADME, microsome; details: read-out: CLH
# Plasmodium berghei = assay: Antimalarial activity against Plasmodium berghei infected in mouse assessed as reduction in parasitemia at 30 mg/kg, po administered as single dose measured on day 3 relative to control; type: functional; set-up: scale not given: the % may be the effect or the level left
# Plasmodium falciparum = assay: Antimalarial activity against Plasmodium falciparum Pf3D70087/N9 infected in po dosed humanized NOD.Cg-Prkdcscid Il2rgtm1Wjl/SzJ mouse assessed as reduction in parasitemia administered as single dose measured on day 7 post infection by SYTO-16 dye-based flow cytometric analysis; type: functional; details: 168 h
# Mus musculus [21] = assay: Dose normalized AUC (0 to t) in humanized NOD.Cg-Prkdcscid Il2rgtm1Wjl/SzJ mouse infected with Plasmodium falciparum Pf3D70087/N9 at 5 mg/kg, po administered as single dose by LC-MS/MS analysis; type: ADME, organism-based; details: in vivo
# [22] = Drug metabolism in mouse liver microsomes assessed as morpholine ring opened metabolite formation at 5 uM after 60 mins by UPLC-MS analysis; type: ADME, microsome; details: 1 h
# [23] = Drug metabolism in human liver microsomes assessed as morpholine ring opened metabolite formation at 5 uM after 60 mins by UPLC-MS analysis; type: ADME, microsome; details: 1 h
# [24] = Drug metabolism in rat liver microsomes assessed as deaminated morpholine metabolite formation at 5 uM after 60 mins by UPLC-MS analysis; type: ADME, microsome; details: 1 h
# [25] = Tmax in humanized NOD.Cg-Prkdcscid Il2rgtm1Wjl/SzJ mouse infected with Plasmodium falciparum Pf3D70087/N9 at 5 mg/kg, po administered as single dose by LC-MS/MS analysis; type: ADME, organism-based; details: in vivo
# [26] = Metabolic stability in human blood after 2 to 4 hrs by LC-MS method; type: ADME, tissue-based
# [27] = Cmax in humanized NOD.Cg-Prkdcscid Il2rgtm1Wjl/SzJ mouse infected with Plasmodium falciparum Pf3D70087/N9 at 5 mg/kg, po administered as single dose after 0.25 to 23 hrs by LC-MS/MS analysis; type: ADME, organism-based; set-up: dose 5 mg/kg, route oral; details: in vivo
# [28] = Half life in Sprague-Dawley rat at 10 mg/kg, po; type: ADME, organism-based; details: in vivo
# [29] = Drug metabolism in mouse liver microsomes assessed as mono-oxygenation and dehydrogenation metabolite formation at 5 uM after 60 mins by UPLC-MS analysis; type: ADME, microsome; details: 1 h
# Mus musculus [30] = assay: Dose normalized Cmax in humanized NOD.Cg-Prkdcscid Il2rgtm1Wjl/SzJ mouse infected with Plasmodium falciparum Pf3D70087/N9 at 30 mg/kg, po administered as single dose after 0.25 to 23 hrs by LC-MS/MS analysis; type: ADME, organism-based; details: in vivo
# Mus musculus [31] = assay: Dose normalized Cmax in humanized NOD.Cg-Prkdcscid Il2rgtm1Wjl/SzJ mouse infected with Plasmodium falciparum Pf3D70087/N9 at 50 mg/kg, po administered as single dose after 0.25 to 23 hrs by LC-MS/MS analysis; type: ADME, organism-based; details: in vivo
# [32] = Cmax in humanized NOD.Cg-Prkdcscid Il2rgtm1Wjl/SzJ mouse infected with Plasmodium falciparum Pf3D70087/N9 at 50 mg/kg, po administered as single dose after 0.25 to 23 hrs by LC-MS/MS analysis; type: ADME, organism-based; set-up: dose 50 mg/kg, route oral; details: in vivo
smiles,measurement,setting,value
c1cc(C2CCC3(CC2)OOC2(OO3)C3CC4CC(C3)CC2C4)ccc1CN1CCOCC1 (stereo unspecified),Drug metabolism,[1],Metabolite_Notdetected
same,Drug metabolism,[2],Metabolite_Notdetected
same,bioavailability,[3],52%
same,AUCt/dose,Mus musculus [4],0.0232 µg·h/mL/mg/kg
same,Drug metabolism,[5],Metabolite_Notdetected
same,Drug metabolism,[6],Metabolite_Detected
same,Drug metabolism,[7],Metabolite_Notdetected
same,Stability,[8],Stable
same,Drug metabolism,[9],Metabolite_Notdetected
same,AUCt/dose,Mus musculus [10],0.0313 µg·h/mL/mg/kg
same,microsomal CLint at 5 µM,[11],20 µL/min/mg
same,Drug metabolism,[12],Metabolite_Notdetected
same,Drug metabolism,[13],Metabolite_Detected
same,AUCt/dose,Mus musculus [14],0.0599 µg·h/mL/mg/kg
same,Cmax/dose,Mus musculus [15],0.0025 µg/mL/mg/kg
same,Drug metabolism,[16],Metabolite_Notdetected
same,IC50,Cytochrome P450 3A4,> 20 µM
same,Drug metabolism,[17],Metabolite_Notdetected
same,Cmax,[18],148 ng/mL
same,IC50,Cytochrome P450 2C9,> 20 µM
same,Drug metabolism,[19],Metabolite_Notdetected
same,microsomal CLint at 1 µM,[20],37 µL/min/mg
same,Activity,Plasmodium berghei,99.42%
same,ED90,Plasmodium falciparum,8.6 mg/kg
same,AUCt/dose,Mus musculus [21],0.256 µg·h/mL/mg/kg
same,Drug metabolism,[22],Metabolite_Notdetected
same,Drug metabolism,[23],Metabolite_Notdetected
same,Drug metabolism,[24],Metabolite_Notdetected
same,Tmax,[25],1 h
same,Stability,[26],Stable
same,Cmax,[27],109 ng/mL
same,half-life,[28],17 h
same,Drug metabolism,[29],Metabolite_Notdetected
same,Cmax/dose,Mus musculus [30],0.0049 µg/mL/mg/kg
same,Cmax/dose,Mus musculus [31],0.0121 µg/mL/mg/kg
same,Cmax,[32],607 ng/mL

# From ChEMBL document CHEMBL4118195, “Synthesis and profiling of benzylmorpholine 1,2,4,5-tetraoxane analogue N205: Towards tetraoxane scaffolds with potential for single dose cure of malaria” (Bioorg Med Chem, 2018)
